The source of these data is patent US6733971B2, “Method for identifying an agent that affects a hedgehog signaling pathway” (priority 1998, dated 2004).

The structures appear in SMILES notation.

For assay [1], the system named is PP1 and PP2A enzyme activity. The experiment in a line: Protein phosphatase assay on nuclear extracts of control and Shh treated P19 cells. The class given is biochemical, mouse. To be noted: 2 nM, 15 minutes at 30° C., nuclear extracts of 1 nM Shh treated P19 cells. Here is the method:
P19 cells were treated with or without 1 nM Shh for 36 hours and nuclear extracts from these cells were obtained as described earlier. A protein phosphatase assay system™ (Life Technologies, Bethesda) was used to quantitate the phosphatase activity present in the control and induced extracts. P19 cells were treated with or without 1 nM Shh for 36 hours and nuclear extracts from these cells were obtained and incubated with 2 nM OA or 4 nM Inh-2 protein for 15 minutes at 30° C. Results are expressed as mean±sd from three separate experiments.

For another assay, the system named is COUP-TFII mRNA. Nature of the assay: COUP-TFII mRNA in P19 cells, RNase protection assay. To be noted: 5 nM for 12 hours, with 1.0 nM Shh-N. Type of assay: cell-based, mouse. Here is the method:
The P19 mouse embryo carcinoma cell line which was earlier shown to contain increased levels of COUP-TF transcripts after retinoid treatment was utilized. Jonk, L. J. C., et al., Mechan. of Dev. (1994) 47:81-97). Conditioned media obtained from COS-1 cells transfected with mouse Shh-N cDNA expression plasmid or purified E. coli expressed recombinant Shh-N was used.
Briefly, a total of 20 μg RNA was hybridized to a 450 (FIG. 5A) or 120 (FIG. 7B) nucleotide riboprobe that corresponds to the 5′ untranslated region (UTR) of the COUP-TFII gene along with a 670 (FIG. 5A) or 102 (FIG. 7B) nucleotide riboprobe of the murine Cyclophilin A coding region. The RPA II™ kit from Ambion was used to perform the RNase protection assay. The products were subjected to RNase digestion and analyzed on a 6% urea polyacrylamide gel.
(§1) P-19 cells were treated with phosphatase inhibitors to study the endogenous levels of COUP-TFII mRNA. […] Total RVA was isolated from these cells and 20 μg of RNA was used in a RNase protection assay as described above in Example 6. A region of the murine Cyclophilin A cDNA was used to generate riboprobe and was used as an internal control. P19 cells were co-treated with (FIG. 7C, lane 2, 4, 6, and 7) or without (FIG. 7C, lane 1, 3, and 5) 1.0 nM Shh-N and 5 nM OA (lane 3 and 4), 0.5 nM CyA (FIG. 7C, lane 5 & 6) or 5 nm NoA (FIG. 7C, lane 9). Cells were harvested after 24 hours of treatment and the nuclear extract was obtained for the binding reactions. Extracts were subjected to an EMSA as described earlier.

In another assay the test system is GliRE. The experiment in a line: GliRE-CAT reporter in P19 cells cotransfected with Shh expression plasmid. The note with it: 5 nM for 14 hours. The class given is cell-based, mouse. Here is the method:
P19 cells were cotransfected with pBKCMV-Shh expression plasmid and a GliRECAT reporter plasmid (1 μg)as described earlier. Krishnan, V., et al., Mol. Endo., 11: 1458-1466, 1997. Cells cotransfected with pBKCMY-Shh or pBKCMV plasmid (200 ng) were treated with or without 5 nM OA for 14 hours and reporter gene activity was assayed as described earlier. Gorman, C. M., et al., Mol. and Cell. Biology, 2:1044-1051, 1982. Results are expressed as mean±sd from three separate experiments.

The subject of a further assay is HNF3β and Isl-1. The experiment in a line: SHH induction of HNF3β and Isl-1 in chick embryo neurotube explant. The class given is cell-based. The text has this: Most of the components identified so far in the HH signaling pathway are conserved from Drosophila to vertebrates. The phosphatase activity found in cl-8 cells may also be conserved in vertebrates. Sonic HH (SHH), the vertebrate homolog of HH, induced the floor plate marker hepatocyte nuclear factor 3β (HNF3) and motor neuron marker islet-1 (Is1-1) in the developing neurotube. In chick embryo neurotube explant, exogenously provided SHH induced the expression of HNF3β and Isl-1.

The subject of another assay is PP2B. To be noted: cited from earlier work.
The test system of the next assay is ShhRE. Nature of the assay: EMSA of Shh-induced protein binding to radiolabeled ShhRE, P19 nuclear extracts. Type of assay: cell-based, mouse. The note with it: 5 nM, 1.0 nM Shh-N, 24 hours. Here is the method: Methods described in Example 6 were used in addition to the following protocols. P19 cells were treated with or without Shh-N for 24 hours and nuclear extracts were obtained and used in an electrophoretic mobility shift assay (EMSA) with radiolabeled ShhRE. The following oligos were used as competitors or probes in these assays; WT ShhRE—GTTCTACATAATGCGCCG—SEQ ID NO:1; mShhRE—GTTCTACgTgATGCGCCG—SEQ ID NO:3; GliRE—[…]—. SEQ ID NO:4, Different amounts of unlabeled Gli response element (GliRE) (FIG. 5C, lane 3, 100X; lane 4, 50X; lane 5, 25X; and lane 6, 10X) or ShhRE (lane 7; 100X, lane 8; 50X and lane 9; 10X) was used as a competitor at the indicated molar excess.
In EMSA, radiolabeled probe was incubated with the nuclear extracts (10 μg) along with 4 μg poly dG-dC in a binding reaction containing 10 mM Tris pH 7.5, 50 mM NaCl, 1 mM EDTA, 1 mM DTT, 0.1 mg/ml BSA, and 5% glycerol. Later the mixture was loaded onto a 5% polyacrylamide gel and the retarded complexes were separated-in 1× TBE buffer and analyzed using autoradiography.
as §1
Background: Mobility shift assays separate free from complexed probe on a gel.

For a further assay, the system named is PP2C. To be noted: cited from earlier work.
The subject of assay [2] is Islet-1 and neurofilament (NFL). Nature of the assay: Mouse neural tube explants, whole-mount immunostaining. Type of assay: cell-based. The note with it: 5 nM for 24 hours. As for the experimental part: Mouse embryos at embryonic day 9-9.5 were dissected in such a way as to remove surface ectoderm and somitic mesoderm and neural tubes were isolated from the level of rhombomere 8 in the rostral region to the first segmenting somite in the caudal region. Neural tubes were cultured for 24 hours, dorsal-side down on Millicell-CM membranes and overlayed with Matrigel™ containing 10 ng/ml NT-3, with L15 air in presence or absence of 5nM OA. The explants were subjected to whole-mount immunostaining using a monoclonal antibody raised against mouse Islet-1 (39.4D5) or neurofilament (NFL) was used to analyze any changes in Islet-1 and NFL expression.

For the compound `C=C1[C@@H](O)[C@@H]2O[C@]3(CC[C@H](/C=C/[C@@H](C)[C@@H]4CC(C)=C[C@@]5(O[C@H](C[C@@](C)(O)C(=O)O)CC[C@H]5O)O4)O3)CC[C@H]2O[C@@H]1[C@@H](O)C[C@H](C)[C@H]1O[C@@]2(CCCCO2)CC[C@H]1C` [OA, okadaic acid], in assay [1], the Shh-induced phosphatase activity result is listed as “completely abolished”. The “Shh-induced COUP-TFII mRNA” value with COUP-TFII mRNA is on record as “complete inhibition”. Also, the “Shh-enhanced GliRE-CAT reporter activity” value in the assay on GliRE is listed as “sensitive”. Further, the “induction of HNF3β and Isl-1” value in the assay with HNF3β and Isl-1 (1 nM, 2.5 mg/ml of SHH) is “reduced the induction”; in the assay with HNF3β and Isl-1 (10 nM, 10 mg/ml of SHH), “completely blocked the induction”. For the same compound, the “effect on induction of HNF3β and Isl-1 at higher SHH” value in the assay with HNF3β and Isl-1 (1 nM, 10 mg/ml of SHH) is reported as “reversed”. In addition, in the assay on PP2B, the “effect on PP2B” value was “no effect”. The “Shh-induced binding to radiolabeled ShhRE” value in the assay with ShhRE was “abolished”. Also, the “effect on PP2C” value in the assay on PP2C is on record as “no effect”. The “neurofilament staining within the neural tube” value in assay [2] is recorded as “no effect”. In addition, in assay [2] (9.5 dpc mouse neural tube explants), the “levels of immunodetectable Is11 protein” value was “significantly decreased”.
